From the NIST ThermoML archive (doi:10.1016/j.jct.2012.03.034)
Numbers after ± are expanded uncertainties.

Assay: xn = mol fraction of the nth substance listed
Conditions: 101 kPa, Liquid; for speed of sound: Linear variable-path acoustic interferometer; for mass density: Vibrating tube method; for viscosity: dual vibrating plate viscometer, AandD Co. Ltd Model SV-10

CC(=O)[O-].CC[NH2+]CC [diethylammonium acetate] + CN1CCCC1=O
Conditions	mass density [kg/m3]	speed of sound [m/s]	viscosity [mPa·s]
298.15 K, x1 = 0.0234	1026.53 ± 0.31	1570 ± 2	1.83 ± 0.04
298.15 K, x1 = 0.0473	1027.19 ± 0.31	1570 ± 2	1.82 ± 0.04
298.15 K, x1 = 0.1188	1028.41 ± 0.31	1576 ± 2	2.26 ± 0.05
298.15 K, x1 = 0.1668	1029.09 ± 0.31	1575 ± 2	2.67 ± 0.06
298.15 K, x1 = 0.2393	1029.73 ± 0.31	1563 ± 2	3.57 ± 0.08
298.15 K, x1 = 0.3616	1030.18 ± 0.31	1527 ± 2	5.62 ± 0.12
298.15 K, x1 = 0.411	1030.19 ± 0.31	1510 ± 2	6.49 ± 0.14
298.15 K, x1 = 0.4856	1029.95 ± 0.31	1487 ± 2	7.94 ± 0.17
298.15 K, x1 = 0.6115	1028.88 ± 0.31	1458 ± 2	10.53 ± 0.22
298.15 K, x1 = 0.7391	1027.18 ± 0.31	1454 ± 2	13.14 ± 0.27
298.15 K, x1 = 0.8686	1024.96 ± 0.31	1486 ± 2	15.33 ± 0.32
298.15 K, x1 = 0.9493	1023.14 ± 0.31	1539 ± 2	16.26 ± 0.34
298.15 K, x1 = 0.9758	1022.3 ± 0.31	1562 ± 3	16.41 ± 0.34
298.15 K, x1 = 1	1021.41 ± 0.31	1608 ± 2	16.36 ± 0.34
303.15 K, x1 = 0.0234	1024.14 ± 0.3	1555 ± 2	1.6 ± 0.03
303.15 K, x1 = 0.0473	1024.34 ± 0.31	1557 ± 2	1.66 ± 0.03
303.15 K, x1 = 0.1188	1025.34 ± 0.31	1563 ± 2	2.03 ± 0.04
303.15 K, x1 = 0.1668	1025.85 ± 0.31	1565 ± 2	2.34 ± 0.05
303.15 K, x1 = 0.2393	1026.2 ± 0.31	1556 ± 2	3.09 ± 0.07
303.15 K, x1 = 0.3616	1026.29 ± 0.31	1523 ± 2	4.89 ± 0.1
303.15 K, x1 = 0.411	1026.22 ± 0.31	1508 ± 2	5.6 ± 0.12
303.15 K, x1 = 0.4856	1025.78 ± 0.31	1488 ± 2	6.88 ± 0.14
303.15 K, x1 = 0.6115	1024.47 ± 0.31	1460 ± 2	9.13 ± 0.19
303.15 K, x1 = 0.7391	1022.47 ± 0.31	1458 ± 2	11.3 ± 0.23
303.15 K, x1 = 0.8686	1019.99 ± 0.31	1494 ± 2	13.05 ± 0.27
303.15 K, x1 = 0.9493	1018.04 ± 0.31	1552 ± 2	13.74 ± 0.28
303.15 K, x1 = 0.9758	1017.29 ± 0.31	1574 ± 2	13.82 ± 0.29
303.15 K, x1 = 1	1016.52 ± 0.3	1612 ± 2	13.64 ± 0.28
308.15 K, x1 = 0.0234	1019.65 ± 0.3	1531 ± 2	1.48 ± 0.03
308.15 K, x1 = 0.0473	1019.91 ± 0.3	1536 ± 2	1.67 ± 0.04
308.15 K, x1 = 0.1188	1020.3 ± 0.31	1546 ± 2	1.87 ± 0.04
308.15 K, x1 = 0.1668	1020.67 ± 0.31	1548 ± 2	2.15 ± 0.05
308.15 K, x1 = 0.2393	1020.89 ± 0.31	1542 ± 2	2.84 ± 0.06
308.15 K, x1 = 0.3616	1020.97 ± 0.31	1514 ± 2	4.45 ± 0.09
308.15 K, x1 = 0.411	1020.77 ± 0.31	1502 ± 2	5.1 ± 0.11
308.15 K, x1 = 0.4856	1020.41 ± 0.31	1484 ± 2	6.24 ± 0.13
308.15 K, x1 = 0.6115	1019.23 ± 0.3	1462 ± 2	8.23 ± 0.17
308.15 K, x1 = 0.7391	1017.4 ± 0.3	1463 ± 2	10.18 ± 0.21
308.15 K, x1 = 0.8686	1015.03 ± 0.3	1501 ± 2	11.58 ± 0.24
308.15 K, x1 = 0.9493	1013.14 ± 0.3	1555 ± 2	12.1 ± 0.25
308.15 K, x1 = 0.9758	1012.47 ± 0.3	1580 ± 2	12.16 ± 0.25
308.15 K, x1 = 1	1011.87 ± 0.3	1616 ± 2	11.83 ± 0.24
313.15 K, x1 = 0.0234	1014.97 ± 0.3	1527 ± 2	1.37 ± 0.03
313.15 K, x1 = 0.0473	1015.32 ± 0.3	1532 ± 2	1.44 ± 0.03
313.15 K, x1 = 0.1188	1015.77 ± 0.3	1544 ± 2	1.75 ± 0.04
313.15 K, x1 = 0.1668	1016.03 ± 0.3	1547 ± 2	1.98 ± 0.04
313.15 K, x1 = 0.2393	1016.53 ± 0.3	1543 ± 2	2.61 ± 0.06
313.15 K, x1 = 0.3616	1016.79 ± 0.3	1520 ± 2	4.05 ± 0.08
313.15 K, x1 = 0.411	1016.77 ± 0.3	1509 ± 2	4.66 ± 0.1
313.15 K, x1 = 0.4856	1016.52 ± 0.3	1494 ± 2	5.67 ± 0.12
313.15 K, x1 = 0.6115	1015.76 ± 0.3	1473 ± 2	7.42 ± 0.15
313.15 K, x1 = 0.7391	1014.43 ± 0.3	1477 ± 2	9.06 ± 0.19
313.15 K, x1 = 0.8686	1012.59 ± 0.3	1515 ± 2	10.26 ± 0.21
313.15 K, x1 = 0.9493	1010.98 ± 0.3	1567 ± 2	10.62 ± 0.22
313.15 K, x1 = 0.9758	1010.43 ± 0.3	1592 ± 2	10.57 ± 0.22
313.15 K, x1 = 1	1010.08 ± 0.3	1617 ± 2	10.02 ± 0.21
